According to publication PMC8359193, “Summary of reference chemicals evaluated by the fish short‐term reproduction assay, OECD TG229, using Japanese Medaka, Oryzias latipes” (Journal of Applied Toxicology, 2021):
Where a name gives a salt, the structure may show the parent alone.

System: Japanese medaka (Oryzias latipes)
Assay: Fish short-term reproduction assay (FSTRA, OECD TG229), 21-day flow-through exposure
Details: for Fertility rate (%) / Mortality (%) Female / Mortality (%) Male / Number of fertilized eggs / Number of total eggs / SSC Female / SSC Male / VTG (ng/mg of liver) Female / VTG (ng/mg of liver) Male: 21 days; for GSI Female / GSI Male / HSI Female / HSI Male / Length Female / Length Male / Weight Female / Weight Male: at completion of exposure
Method: The experimental studies on the FSTRA for the 16 chemicals were conducted in two laboratories in Japan, the National Institute for Environmental Studies (NIES, Lab‐1) and the Institute of Environmental Ecology, IDEA Consultants Inc. (Lab‐2), in accordance with OECD TG229 (OECD, [2012a]) (Table 1).
The NIES‐R strain of Japanese medaka (O. latipes), one of the orange‐red varieties, was used in all the 16 chemical studies. For the studies, healthy and mature male and female medakas at 16 ± 2 weeks old were selected from a single‐stock population, which were bred within the test facilities. The test fish were maintained in conditions similar to the assay for at least 7 days, and spawning status was checked during the acclimation period. On the day the chemical exposure commenced, to ensure balanced distribution of test fish between the treatment groups for the reproductive status of the fish, the replicate vessels (fish tanks), with each containing three male and female medaka, were distributed to each treatment and control group, for example, by a randomized block design based on the number of fertilized eggs laid in the last 5–7 days during the acclimation, in each assay.
The water solubility of the test chemical was also taken into consideration when deciding the highest test concentration. To set the lower concentrations, a spacing factor ranging between two and five was used. All assays included a dilution water control (DWC).
Test solutions at the selected concentrations were prepared by diluting a stock solution, which was prepared by an adequate method depending on the physicochemical properties of the test chemicals, for example, by simply mixing the test chemical in dilution water by stirring and/or sonicating for an appropriate time or by using a solid–liquid saturator. In the two laboratories, flow‐through exposure systems, in which a series of test solutions at the target concentrations can be continuously prepared and delivered to test vessels at controlled flow rates (Haselman et al., [2016]; Watanabe et al., [2017]), were used for the exposure experiments.
In the FSTRA, three mature adult males and females in a test vessel were exposed together to the test chemicals in flow‐through condition for 3 weeks. In all the assays, each treatment group, including the DWC group, contained four replicate tanks. During the exposure period, the fish were fed a sufficient amount of live brine shrimp nauplii (newly hatched Artemia sp.) for daily spawning ad libitum. Fecal material in the tanks was appropriately removed by siphoning after feeding. Water temperature of test solutions was recorded for at least one vessel in each treatment and control group every day and for all vessels at least once a week. Furthermore, dissolved oxygen and pH of test solutions were measured for all test vessels at least once a week. Mortality and abnormal behavior and appearance in the fish exposed to test chemicals were daily observed, and any fish that died were removed from the tank as soon as possible. To assess the reproductive status, all eggs females spawned were collected every day. At the completion of the chemical exposure, surviving fish in each tank were sampled.
The eggs females released on the bottom of the tank were collected by siphoning, and the egg clutches still on female abdomen were carefully picked from the body of the females captured using a small net. All the eggs collected were microscopically observed and separately counted for fertilized and unfertilized.

## C[C@]12CCC(=O)C[C@@H]1CC[C@@H]1[C@@H]2CC[C@]2(C)[C@@H](O)CC[C@@H]12 [DHT, 5α‐Dihydrotestosterone]
21-day exposure
  effect on male SSC, in words: statistical significance
21-day exposure, measured conc.
  LOEC on female SSC (papillary process formation on anal fin): 1.03 µg/L
Measured conc. 0.063 μg/L
  Fertility rate (%): 94%
  Mortality (%) Female: 0%
  Mortality (%) Male: 0%
  Number of fertilized eggs: 17
  Number of total eggs: 18 ± 5.6 /female/day
  SSC Female: 0 ± 0
  SSC Male: 72 ± 12
  VTG (ng/mg of liver) Female: 617 ± 374 ng/mg of liver
  VTG (ng/mg of liver) Male: 1.6 ± 0.4 ng/mg of liver
  GSI Female: 10.5%
  GSI Male: 1.15%
  HSI Female: 3.6%
  HSI Male: 1.5%
  Length Female: 32.9 mm
  Length Male: 33.4 mm
  Weight Female: 354 mg
  Weight Male: 377 mg
Measured conc. 2.97 μg/L
  Fertility rate (%): 84%
  Mortality (%) Female: 0%
  Mortality (%) Male: 0%
  Number of fertilized eggs: 12
  Number of total eggs: 14 ± 3.7 /female/day
  SSC Female: 22 ± 14
  SSC Male: 78 ± 16
  VTG (ng/mg of liver) Female: 587 ± 306 ng/mg of liver
  VTG (ng/mg of liver) Male: 1.4 ± 0.7 ng/mg of liver
  GSI Female: 21.1%
  GSI Male: 1.21%
  HSI Female: 3.8%
  HSI Male: 1.7%
  Length Female: 32.8 mm
  Length Male: 33.6 mm
  Weight Female: 425 mg
  Weight Male: 411 mg
Within the test concentrations, 21-day exposure
  effect on fecundity (number of total eggs), in words: significantly reduced

## O=C(c1ccc(OCCN2CCCCC2)cc1)c1c(-c2ccc(O)cc2)sc2cc(O)ccc12 [RAL, Raloxifene hydrochloride]
Hepatic VTG, 21-day exposure, measured conc.
  LOEC for decrease of VTG in females: 721 µg/L
Measured conc. 63.9 μg/L
  Fertility rate (%): 87%
  Mortality (%) Female: 0%
  Mortality (%) Male: 0%
  Number of fertilized eggs: 16
  Number of total eggs: 18 ± 4.2 /female/day
  SSC Female: 0 ± 0
  VTG (ng/mg of liver) Male: 19.6 ± 5.7 ng/mg of liver
  GSI Female: 9.6%
  GSI Male: 1.03%
  HSI Female: 3.2%
  HSI Male: 1.5%
  Length Female: 36.9 mm
  Length Male: 37.5 mm
  Weight Female: 555 mg
  Weight Male: 511 mg
Measured conc. 203 μg/L
  Fertility rate (%): 86%
  Mortality (%) Female: 0%
  Mortality (%) Male: 0%
  Number of fertilized eggs: 14
  Number of total eggs: 16 ± 2.6 /female/day
  SSC Female: 0 ± 0
  SSC Male: 118 ± 15
  VTG (ng/mg of liver) Female: 652 ± 82.4 ng/mg of liver
  VTG (ng/mg of liver) Male: 30.2 ± 11.4 ng/mg of liver
  GSI Female: 10.2%
  GSI Male: 0.97%
  HSI Female: 2.9%
  HSI Male: 1.6%
  Length Female: 37.8 mm
  Length Male: 38.4 mm
  Weight Female: 600 mg
  Weight Male: 550 mg
Measured conc. 721 μg/L
  Fertility rate (%): 82%
  Mortality (%) Female: 0%
  Mortality (%) Male: 0%
  Number of fertilized eggs: 14
  Number of total eggs: 17 ± 2.6 /female/day
  SSC Female: 0 ± 0
  VTG (ng/mg of liver) Female: 368 ± 68.4 ng/mg of liver
  VTG (ng/mg of liver) Male: 24.1 ± 13.7 ng/mg of liver
  GSI Female: 10.5%
  GSI Male: 0.96%
  HSI Female: 3.4%
  HSI Male: 1.5%
  Length Female: 38.8 mm
  Length Male: 39.0 mm
  Weight Female: 638 mg
  Weight Male: 612 mg
Measured conc. 2080 μg/L
  Fertility rate (%): 72%
  Mortality (%) Female: 0%
  Mortality (%) Male: 0%
  Number of fertilized eggs: 14
  Number of total eggs: 19 ± 2.5 /female/day
  SSC Female: 0 ± 0
  VTG (ng/mg of liver) Female: 305 ± 99.8 ng/mg of liver
  VTG (ng/mg of liver) Male: 17.2 ± 3.5 ng/mg of liver
  GSI Female: 11.5%
  GSI Male: 1.12%
  HSI Female: 4.7%
  HSI Male: 1.7%
  Length Female: 38.8 mm
  Length Male: 37.1 mm
  Weight Female: 675 mg
  Weight Male: 506 mg
